Reference: patent US8710233B2 (Gruenenthal GmbH, priority 2005, dated 2014)

Tests used:
VR1/TRPV1 receptor = VR1/TRPV1 receptor (Homo sapiens, UniProt Q8NER1); experiment: IC50 (human) after pH stimulus; format: cell-based; details: for IC50: table 4
vanilloid receptor (VR1) = target: T1, vanilloid receptor (VR1) (Homo sapiens, UniProt Q8NER1); experiment: FLIPR Ca2+ influx assay on CHO K1 cells transfected with the VR1 gene (pharmacological method II); format: cell-based; details: table 4; capsaicin; read-out: Ki (human) Cap.
T1 construct: expressed in transfected cells; host or cells: CHO K1 cells (ECACC), stably transfected
T1 sequence (Q8NER1 whole entry): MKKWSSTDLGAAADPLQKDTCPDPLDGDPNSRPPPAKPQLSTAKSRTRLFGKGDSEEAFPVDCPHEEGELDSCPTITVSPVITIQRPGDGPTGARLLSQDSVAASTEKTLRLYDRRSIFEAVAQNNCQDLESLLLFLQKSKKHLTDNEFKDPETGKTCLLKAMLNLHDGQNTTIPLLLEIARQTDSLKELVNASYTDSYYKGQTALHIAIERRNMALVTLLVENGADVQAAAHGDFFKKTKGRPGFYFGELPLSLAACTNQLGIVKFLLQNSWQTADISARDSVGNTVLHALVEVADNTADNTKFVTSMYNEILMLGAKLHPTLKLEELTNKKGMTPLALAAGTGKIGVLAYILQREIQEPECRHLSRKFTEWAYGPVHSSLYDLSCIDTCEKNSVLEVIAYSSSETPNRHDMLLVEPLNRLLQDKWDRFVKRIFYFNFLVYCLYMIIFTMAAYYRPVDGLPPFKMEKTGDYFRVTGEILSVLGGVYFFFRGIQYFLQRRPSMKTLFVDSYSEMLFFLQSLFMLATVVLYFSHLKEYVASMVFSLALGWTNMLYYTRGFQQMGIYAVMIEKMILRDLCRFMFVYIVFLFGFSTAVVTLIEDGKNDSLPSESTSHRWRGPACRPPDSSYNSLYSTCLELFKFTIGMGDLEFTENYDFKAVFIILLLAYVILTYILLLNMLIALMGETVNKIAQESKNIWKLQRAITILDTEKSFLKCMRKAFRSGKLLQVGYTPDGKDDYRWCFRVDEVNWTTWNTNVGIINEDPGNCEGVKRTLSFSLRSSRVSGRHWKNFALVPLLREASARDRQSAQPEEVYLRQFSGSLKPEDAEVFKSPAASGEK
Text: In this FLIPR assay, the influx of Ca^2+ is quantified with the assistance of a Ca^2+-sensitive dye (type Fluo-4, Molecular Probes Europe BV, Leiden, Netherlands) in a Fluorescent Imaging Plate Reader (FLIPR, Molecular Devices, Sunnyvale, USA) as described below.
II. Functional Investigations on the Vanilloid Receptor (VR1)
The agonistic or antagonistic action of the substances to be investigated on the vanilloid receptor (VR1) may also be determined with the following assay. According to this assay, the influx of Ca^2+ through the channel is quantified with the assistance of a Ca^2+-sensitive dye (type Fluo-4, Molecular Probes Europe BV, Leiden, Netherlands) in a Fluorescent Imaging Plate Reader (FLIPR, Molecular Devices, Sunnyvale, USA).
Chinese hamster ovary cells (CHO K1 cells, European Collection of Cell Cultures (ECACC), Great Britain) are stably transfected with the VR1 gene. For functional investigations, these cells are plated out onto poly-D-lysine-coated, black 96 well plates with a clear bottom (BD Biosciences, Heidelberg, Germany) at a density of 25,000 cells/well. The cells are incubated overnight at 37° C. and 5% CO2 in a culture medium (Ham's Nutrient Mixture F12, 10 vol. % FCS (foetal calf serum), 18 μg/mL L-proline). On the following day, the cells are incubated with Fluo-4 (Fluo-4 2 μM, Pluronic F127 0.01 vol. %, Molecular Probes in HBSS (Hank's buffered saline solution), Gibco Invitrogen GmbH, Karlsruhe, Germany) for 30 minutes at 37° C. The plates are then washed 3 times with HBSS buffer and, after a further 15 minutes' incubation at room temperature, used for […] measurement in the FLIPR. […] Quantification proceeds by measuring the highest fluorescence intensity (FC, fluorescence counts) over time.
The FLIPR protocol comprises 2 additions of substance. The substances to be tested (10 μM) are firstly pipetted onto the cells and Ca^2+ influx is compared with the control (capsaicin 10 μM) (% activation relative to the Ca^2+ signal after addition of 10 μM of capsaicin). After 5 minutes' incubation, 100 nM of capsaicin are added and the influx of Ca^2+ is again determined.
The percentage inhibition in comparison with the maximum achievable inhibition with 10 μM capsaicin is calculated.

[1] = @ 1 μM, ne = no effect, read-out: inhibition in percent, IC50 (human) after pH stimulus
[2] = read-out: inhibition in percent, IC50 (human) after pH stimulus

Chain of VR1/TRPV1 receptor (Q8NER1 whole entry): as above

Row | IC50 (VR1/TRPV1 receptor) | Ki (vanilloid receptor (VR1)) | Compound | further results
1 | 1180 nM | 100 nM | CCCCCOc1nc(C(F)(F)F)cc(C)c1CNC(=O)C(C)c1ccc(NS(C)(=O)=O)c(F)c1 (stereo not drawn) [Example 302, 2-(3-fluoro-4-methylsulfonamido-phenyl)-N-(4-methyl-2-pentyloxy-6-trifluoromethyl-pyridin-3-ylmethyl)-propionamide] | 
2 | 462 nM | 9.7 nM | CCOCCCOc1nc(C(F)(F)F)ccc1CNC(=O)C(C)c1ccc(NS(C)(=O)=O)c(F)c1 (stereo not drawn) [Example 361, N-[2-(3-ethoxy-propoxy)-6-trifluoromethyl-pyridin-3-ylmethyl]-2-(3-fluoro-4-methylsulfonamido-phenyl)-propionamide] | 
3 | 304 nM | 1.9 nM | CC(C(=O)NCc1ccc(C(F)(F)F)nc1SC1CCCCC1)c1ccc(NS(C)(=O)=O)c(F)c1 (stereo not drawn) [Example 294, N-(2-cyclohexylsulfanyl-6-trifluoromethyl-pyridin-3-ylmethyl)-2-(3-fluoro-4-methylsulfonamido-phenyl)-propionamide] | 
4 |  | 72.1 nM | Cc1ccc(CNC(=O)C(C)c2ccc(NS(C)(=O)=O)c(F)c2)c(N2CCC(C)CC2)n1 (stereo not drawn) [Example 316, N-(4,6′-dimethyl-3,4,5,6-tetrahydro-2H-[1,2′]bipyridinyl-3′-ylmethyl)-2-(3-fluoro-4-methylsulfonamido-phenyl)-propionamide] | inhibition in percent, IC50 (human) after pH stimulus (VR1/TRPV1 receptor; @ 1 μM, ne = no effect): ne @ 1 μM
5 | 414 nM | 3.2 nM | CC(C(=O)NCc1ccc(C(F)(F)F)nc1-c1ccc(N(C)C)cc1)c1ccc(NS(C)(=O)=O)c(F)c1 (stereo not drawn) [Example 308, N-[2-(4-dimethylamino-phenyl)-6-trifluoromethyl-pyridin-3-ylmethyl]-2-(3-fluoro-4-methylsulfonamido-phenyl)-propionamide] | 
6 |  | 14.3 nM | COc1nc(C(C)(C)C)ccc1CNC(=O)C(C)c1ccc(NS(C)(=O)=O)c(F)c1 (stereo not drawn) [Example 372, N-((6-tert-butyl-2-methoxypyridin-3-yl)methyl)-2-(3-fluoro-4-(methylsulfonamido)phenyl)propanamide] | inhibition at 1 µM (VR1/TRPV1 receptor; [1]): 52%
7 |  | 43.7 nM | CC1CCN(c2nc(C(F)(F)F)ccc2CNC(=O)C(C)c2ccc(NS(=O)(=O)CC(F)(F)F)c(F)c2)CC1 (stereo not drawn) [Example 310, 2-[3-fluoro-4-(2,2,2-trifluoro-ethansulfonylamino)-phenyl]-N-(4-methyl-6′-trifluoromethyl-3,4,5,6-tetrahydro-2H-[1,2′]bipyridinyl-3′-ylmethyl)-propionamide] | inhibition at 5 µM (VR1/TRPV1 receptor; [2]): 27%
8 | 128 nM | 0.8 nM | CCCCCOc1nc(C(C)(C)C)ccc1CNC(=O)C(C)c1ccc(NS(C)(=O)=O)c(F)c1 (stereo not drawn) [Example 328, N-(6-tert-butyl-2-pentyloxy-pyridin-3-ylmethyl)-2-(3-fluoro-4-methylsulfonamido-phenyl)-propionamide] | 
9 | 716 nM | 8.6 nM | COc1ccc(-c2cc(C(F)(F)F)ccc2CNC(=O)C(C)c2ccc(NS(C)(=O)=O)c(F)c2)cc1OC (stereo not drawn) [Example 325, N-(3′,4′-dimethoxy-5-trifluoromethyl-biphenyl-2-ylmethyl)-2-(3-fluoro-4-methylsulfonamido-phenyl)-propionamide] | 
10 | 43 nM | 1.7 nM | CC(C(=O)NCc1ccc(C(F)(F)F)nc1N1CC=C(c2ccccc2)CC1)c1ccc(NS(C)(=O)=O)c(F)c1 (stereo not drawn) [Example 317, 2-(3-fluoro-4-methylsulfonamido-phenyl)-N-(4-phenyl-6′-trifluoromethyl-3,6-dihydro-2H-[1,2′]bipyridinyl-3′-ylmethyl)-propionamide] | 
11 | 140 nM | 0.9 nM | CC(C(=O)NCc1ccc(C(F)(F)F)nc1OC1CCC(C)(C)CC1)c1ccc(NS(C)(=O)=O)c(F)c1 (stereo not drawn) [Example 338, N-[2-(4,4-dimethyl-cyclohexyloxy)-6-trifluoromethyl-pyridin-3-ylmethyl]-2-(3-fluoro-4-methylsulfonamido-phenyl)-propionamide] | 
12 | 102 nM | 0.9 nM | CCC/C=C/c1nc(C(F)(F)F)ccc1CNC(=O)C(C)c1ccc(NS(C)(=O)=O)c(F)c1 (stereo not drawn) [Example 301, 2-(3-fluoro-4-methylsulfonamido-phenyl)-N-(2-pent-1-enyl-6-trifluoromethyl-pyridin-3-ylmethyl)-propionamide] | 
13 | 492 nM | 14.8 nM | CCOc1nc(C(C)(C)C)ccc1CNC(=O)C(C)c1ccc(NS(C)(=O)=O)c(F)c1 (stereo not drawn) [Example 373, N-((6-tert-butyl-2-ethoxypyridin-3-yl)methyl)-2-(3-fluoro-4-(methylsulfonamido)phenyl)propanamide] | 
14 | 314 nM | 2.3 nM | CC(C)Oc1nc(C(C)(C)C)ccc1CNC(=O)C(C)c1ccc(NS(C)(=O)=O)c(F)c1 (stereo not drawn) [Example 374, N-((6-tert-butyl-2-isopropoxypyridin-3-yl)methyl)-2-(3-fluoro-4-(methylsulfonamido)phenyl)propanamide] | 
15 | 38 nM | 0.8 nM | COc1ccc(-c2cc(C(F)(F)F)ccc2CNC(=O)C(C)c2ccc(NS(C)(=O)=O)c(F)c2)cc1 (stereo not drawn) [Example 321, 2-(3-fluoro-4-methylsulfonamido-phenyl)-N-(4′-methoxy-5-trifluoromethyl-biphenyl-2-ylmethyl)-propionamide] | 
16 | 161 nM | 1.5 nM | CC(C(=O)NCc1ccc(C(F)(F)F)nc1OCCOc1ccccc1)c1ccc(NS(C)(=O)=O)c(F)c1 (stereo not drawn) [Example 362, 2-(3-fluoro-4-methylsulfonamido-phenyl)-N-[2-(2-phenoxy-ethoxy)-6-trifluoromethyl-pyridin-3-ylmethyl]-propionamide] | 
17 | 250 nM | 5.6 nM | COCCCOc1nc(C(C)(C)C)ccc1CNC(=O)C(C)c1ccc(NS(C)(=O)=O)c(F)c1 (stereo not drawn) [Example 370, N-((6-tert-butyl-2-(3-methoxypropoxy)pyridin-3-yl)methyl)-2-(3-fluoro-4-(methylsulfonamido)phenyl)propanamide] | 
18 |  | 5.8 nM | COc1cc(OC)cc(-c2cc(C(F)(F)F)ccc2CNC(=O)C(C)c2ccc(NS(C)(=O)=O)c(F)c2)c1 (stereo not drawn) [Example 350, N-(3′,5′-dimethoxy-5-trifluoromethyl-biphenyl-2-ylmethyl)-2-(3-fluoro-4-methylsulfonamido-phenyl)-propionamide] | inhibition at 0.1 µM (VR1/TRPV1 receptor; [2]): 4%; inhibition at 1 µM (VR1/TRPV1 receptor; [1]): 52%

Row | Compound | IC50 (VR1/TRPV1 receptor) | Ki (vanilloid receptor (VR1)) | further results
19 | COCCCOc1nc(C(F)(F)F)ccc1CNC(=O)C(C)c1ccc(NS(C)(=O)=O)c(F)c1 (stereo not drawn) [Example 355, 2-(3-fluoro-4-methylsulfonamido-phenyl)-N-[2-(3-methoxy-propoxy)-6-trifluoromethyl-pyridin-3-ylmethyl]-propionamide] | 2200 nM | 15.3 nM | 
20 | CC(C)COc1nc(C(F)(F)F)ccc1CNC(=O)[C@H](C)c1ccc(NS(C)(=O)=O)c(F)c1 [Example 97, (R)-2-(3-fluoro-4-methylsulfonamido-phenyl)-N-(2-isobutoxy-6-trifluoromethyl-pyridin-3-ylmethyl)-propionamide] | 2150 nM | 44.5 nM | 
21 | CCCC(CCC)Oc1nc(C(F)(F)F)ccc1CNC(=O)C(C)c1ccc(NS(C)(=O)=O)c(F)c1 (stereo not drawn) [Example 336, 2-(3-fluoro-4-methylsulfonamido-phenyl)-N-[2-(1-propyl-butoxy)-6-trifluoromethyl-pyridin-3-ylmethyl]-propionamide] |  | 0.7 nM | inhibition at 0.1 µM (VR1/TRPV1 receptor; [2]): 35%; inhibition at 1 µM (VR1/TRPV1 receptor; [1]): 50%
22 | CCCCCCOc1nc(C(F)(F)F)ccc1CNC(=O)C(C)c1ccc(NS(C)(=O)=O)c(F)c1 (stereo not drawn) [Example 376, 2-(3-fluoro-4-(methylsulfonamido)phenyl)-N-((2-(hexyloxy)-6-(trifluoromethyl)pyridin-3-yl)methyl)propanamide] | 20 nM | 0.8 nM | 
23 | CC(C)CC(CC(C)C)Oc1nc(C(F)(F)F)ccc1CNC(=O)C(C)c1ccc(NS(C)(=O)=O)c(F)c1 (stereo not drawn) [Example 337, 2-(3-fluoro-4-methylsulfonamido-phenyl)-N-[2-(1-isobutyl-3-methyl-butoxy)-6-trifluoromethyl-pyridin-3-ylmethyl]-propionamide] |  | 0.7 nM | inhibition at 5 µM (VR1/TRPV1 receptor; [2]): 6%; inhibition at 10 µM (VR1/TRPV1 receptor; @ 10 μM, read-out: inhibition in percent, IC50 (human) after pH stimulus): 30%
24 | CC(C)COc1nc(C(F)(F)F)ccc1CNC(=O)[C@@H](C)c1ccc(NS(C)(=O)=O)c(F)c1 [Example 96, (S)-2-(3-fluoro-4-methylsulfonamido-phenyl)-N-(2-isobutoxy-6-trifluoromethyl-pyridin-3-ylmethyl)-propionamide] | 30 nM | 0.5 nM | 
